Source: US4055640A, “Compositions and methods for controlling the growth of bacteria, fungi and algae using certain derivatives of N-(2,2-dichlorovinyl)salicylamides” (Nippon Kayaku Co., Ltd., priority 1975, dated 1977)
Counter-ions that a name gives are not always drawn.

Columns and labels:
summer orange seedlings = experiment: Phytotoxicity on summer orange seedlings (Experimental Example 6); format: in vivo; conditions: 1,000 ppm
Aspergillus niger [1] = experiment: Minimum inhibitory concentration, dilution methods (Example 14); format: cell-based; conditions: (1) potato-dextrose agar dilution method
Text: (§1) Bacteriocidal activity and fungicidal activity of the active compounds of the present invention were examined by potato-dextrose agar dilution method, [2] waxman's liquid medium dilution method or [3] glucose bouillon medium dilution method. The results are shown in Table 4 below as the minimum inhibitory concentration (the minimum concentration of active compound found to produce 100% control of the test bacteria and fungi).

Bacillus subtilis [2] = experiment: as above; format: cell-based; conditions: (3) glucose bouillon medium dilution method
Text: as §1

Cladosporium harbarum [3] = experiment: as above; format: cell-based; conditions: (1) potato-dextrose agar dilution method
Text: as §1

Escherichia coli [4] = experiment: as above; format: cell-based; conditions: (3) glucose bouillon medium dilution method
Text: as §1

Penicillium Citrinum [5] = experiment: as above; format: cell-based; conditions: (1) potato-dextrose agar dilution method
Text: as §1

Pseudomonas fluorescens = experiment: as above; format: cell-based; conditions: (1) potato-dextrose agar dilution method
Text: as §1

Staphylococcus aureus [6] = experiment: as above; format: cell-based; conditions: (3) glucose bouillon medium dilution method
Text: as §1

[7] = test system: Aspergillus niger, Penicillium citrinum, Cladosporium harbarum and chaetomium globosum; experiment: Degree of growth inhibition of fungi on treated beach plates (Example 17); format: cell-based; design: scale not given here; conditions: numerical rating, 2 weeks
Description: The emulsifiable concentrates which were prepared by Example 10 were diluted with water 400 times and 800 times to form emulsions.
The square plates of beach of which a side was 5 cm long and thickness was 5 mm were dipped into the emulsion for 2 minutes and dried for 24 hours at room temperature.
The square plates were placed on the surface of agar plates. The suspensions which contained spores of Aspergillus niger, Penicillium citrinum, Cladosporium harbarum and chaetomium globosum were respectively sprayed on the agar plates and the square plates.
The test fungi were cultivated in the incubator at the humidity of 95% and the temperature of 28° C for 2 weeks.
The degree of growth inhibition is defined in terms of the following numerical ratings.

[8] = test system: bacteria gathered from circular water system; experiment: Degree of propagation on slime test boards (Example 19); format: cell-based; design: key: -: no propagation; +: the area of propagation is 1 - 25% on the slime test boards.; ++: the area of propagation is 26 - 50% on the slime test boards.; +++: the area of propagation is 51 - 75% on the slime test boards.; ++++: the area of propagation is 76 - 100% on the slime test boards
Description: (§2) Zero point zero two (0.02) part of active compounds in the form of 10% water soluble concentrate which was prepared by Example 13 was added into 100 parts of Waxman's liquid medium. Pieces of wood and iron (hereafter referred to as the slime test boards) were soaked into the Waxman's liquid medium. The bacteria which were gathered from circular water system were inoculated upon the Waxman's liquid medium and incubated at 27° C-34° C by shaking culture. The degree of propagation of the bacteria on the slime test boards was examined.
(§3) The growth-inhibiting activity of active compounds against the fungi and the green algae was also examined by the same method as mentioned above.
(§4) The degree of propagation of the bacteria, fungi or green algae on the slime test boards is defined in terms of the following symbols.

fungi [9] = experiment: as above; format: cell-based; design: key: -: no propagation; +: the area of propagation is 1 - 25% on the slime test boards.; ++: the area of propagation is 26 - 50% on the slime test boards.; +++: the area of propagation is 51 - 75% on the slime test boards.; ++++: the area of propagation is 76 - 100% on the slime test boards
Description: as §2, §3, §4

green algae [10] = experiment: as above; format: cell-based; design: key: -: no propagation; +: the area of propagation is 1 - 25% on the slime test boards.; ++: the area of propagation is 26 - 50% on the slime test boards.; +++: the area of propagation is 51 - 75% on the slime test boards.; ++++: the area of propagation is 76 - 100% on the slime test boards
Description: as §2, §3, §4

[11] = test system: botrytis cinerea (gray mold); experiment: Exterminating test on gray mold of tomato (Experimental Example 5); format: in vivo; design: scale not given here; conditions: 1,000 ppm, 48 hours after inoculation, kidney bean leaves
Description: Exterminating test on gray mold of tomato The seedlings of kidney beans (variety: Orient) of 5-6 leaves stage were employed in this test. Eighty percent (80%) wettable powder of the present invention was diluted with water and sprayed over the seedlings in an amount of 10 ml per pot. The leaves were cut from the plant at 24 hours after spraying, and placed in the petri dishes (12 cm in diameter). Thereafter disks (5 mm in diameter) were cut with a cork borer from potato dextrose agar on which the pathogen (botrytis cinerea) was cultured. The disks were placed on the leaves. The dishes were placed in such a moistural condition as to cause the pathogen to propagate. Thiophanate methyl 70% wettable powder on the market was used as a control and tested by the same method. After forty eight (48) hours after inoculation, diameters of the lesions were observed, and an "Effect Index" was calculated as follows; [formula]

[12] = test system: seedlings of kidney beans (variety: Orient); experiment: Phytotoxicity on kidney beans (Experimental Example 5); format: in vivo; conditions: 1,000 ppm
Aspergillus niger [13] = experiment: Minimum inhibitory amount, dilution methods (Example 24); format: cell-based; conditions: (1) potato-dextrose agar dilution method
Text: as §1, with “Bactericidal” for “Bacteriocidal”, “method, or” for “method,”, “[2]” for “[2] waxman's liquid medium dilution method or [3]”, “10” for “4”

Bacillus subtilis [14] = experiment: as above; format: cell-based; conditions: (2) glucose bouillon medium dilution method
Text: as §1, with “Bactericidal” for “Bacteriocidal”, “method, or” for “method,”, “[2]” for “[2] waxman's liquid medium dilution method or [3]”, “10” for “4”

Cladosporium harbarum [15] = experiment: as above; format: cell-based; conditions: (1) potato-dextrose agar dilution method
Text: as §1, with “Bactericidal” for “Bacteriocidal”, “method, or” for “method,”, “[2]” for “[2] waxman's liquid medium dilution method or [3]”, “10” for “4”

Escherichia coli [16] = experiment: as above; format: cell-based; conditions: (2) glucose bouillon medium dilution method
Text: as §1, with “Bactericidal” for “Bacteriocidal”, “method, or” for “method,”, “[2]” for “[2] waxman's liquid medium dilution method or [3]”, “10” for “4”

Penicillium Citrinum [17] = experiment: as above; format: cell-based; conditions: (1) potato-dextrose agar dilution method
Text: as §1, with “Bactericidal” for “Bacteriocidal”, “method, or” for “method,”, “[2]” for “[2] waxman's liquid medium dilution method or [3]”, “10” for “4”

Staphylococcus aureus [18] = experiment: as above; format: cell-based; conditions: (2) glucose bouillon medium dilution method
Text: as §1, with “Bactericidal” for “Bacteriocidal”, “method, or” for “method,”, “[2]” for “[2] waxman's liquid medium dilution method or [3]”, “10” for “4”

[19] = test system: bacteria gathered from circular water system; experiment: Degree of propagation on slime test boards (Example 27); format: cell-based; conditions: shaking culture for 2 days
Description: as §2, with “23” for “13”, “Peices” for “Pieces”, “Wood” for “wood and”, “27°-34°” for “27° C-34°”, “culture for 2 days.” for “culture.”
(§5) Thegrowth-inhibiting activity of active compounds against the fungi and the green algae was also examined by the same method as mentioned above.
(§6) The degree of propagation of the bacteria, fungi or green algae on the test boards is defined in terms of the following symbols.

fungi [20] = experiment: as above; format: cell-based; conditions: same method, shaking culture for 2 days
Description: as §2, with “23” for “13”, “Peices” for “Pieces”, “Wood” for “wood and”, “27°-34°” for “27° C-34°”, “culture for 2 days.” for “culture.”
as §5, §6

green algae [21] = experiment: as above; format: cell-based; conditions: same method, shaking culture for 2 days
Description: as §2, with “23” for “13”, “Peices” for “Pieces”, “Wood” for “wood and”, “27°-34°” for “27° C-34°”, “culture for 2 days.” for “culture.”
as §5, §6

[22] = test system: Bacteria, fungi and slime; experiment: Inhibition of bacteria, fungi and slime in use (Example 23); conditions: water soluble concentrate; 10-20 ppm in water, 0.01-0.1% in pastes
Description: Before application, the concentrate was diluted 500-1000 times with water and sprayed on the inside of cotes to prevent the growth of bacteria and fungi.
The solution was added to water in circular water systems to inhibit the growth of slime. The concentration of Compound No. 21 in the water was 10-20 ppm.
An amount of 0.01-0.1% of Compound No. 21 as the solution was added to pastes or binding agents to prevent rottenness of them.

[23] = test system: Fusarium wilt of cucumber; experiment: Exterminating test on Fusarium wilt of cucumber (Experimental Example 4); format: in vivo, Fusarium oxysporum f, cucumerinum; conditions: Fusarium, 336 h; 500 ppm, soil drench 100 ml per pot, two weeks; read-out: Percentage of healthy seedlings
Method in brief: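 Pots of steam-sterilized soil mixed with 20 g infested soil, sown with 18 cucumber seeds (Tokiwazibai), drenched with 100 ml aqueous suspension of 80% wettable powder. Benlate 50% wettable powder run as control. Disease scored two weeks after planting as percentage of healthy seedlings.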

[24] = test system: cucumber (variety; Tokiwazibai); experiment: Phytotoxicity on cucumber (Experimental Example 4); format: in vivo; conditions: 500 ppm
Description: Exterminating test on Fusarium wilt of cucumber Twenty (20) grams of infected soil was added uniformly into each pot which was filled with steam sterilized field soil, then 18 seeds of cucumber (variety; Tokiwazibai) were sowed in each pot. Eighty percent (80%) wettable powder of the present invention was diluted with water to obtain a suspension, and each pot was drenched with the suspension in an amount of 100 ml. Fifty percent (50%) wettable powder of methyl-1-(butylcarbamoyl) 2-benzimidazol carbamate (hereinafter referred to as Benlate) on the market was used as a control and tested by the same method. After two weeks of planting, degrees attacked by the pathogen was observed and a "percentage of healthy seedlings" was calculated as follows: [formula]

SMILES: O=C(NC=C(Cl)Cl)c1ccccc1O [Compound No. 23]
- Phytotoxicity (summer orange seedlings): Nil
- minimum inhibitory concentration (Aspergillus niger [1]): 10 mc g/ml
- minimum inhibitory concentration (Bacillus subtilis [2]): 5 mc g/ml
- minimum inhibitory concentration (Cladosporium harbarum [3]): 5 mc g/ml
- minimum inhibitory concentration (Escherichia coli [4]): 60 mc g/ml
- minimum inhibitory concentration (Penicillium Citrinum [5]): 10 mc g/ml
- minimum inhibitory concentration (Pseudomonas fluorescens): 13 mc g/ml
- minimum inhibitory concentration (Staphylococcus aureus [6]): 10 mc g/ml
- Degree of growth inhibition ([7]; 0.0125 %): 3
- Degree of growth inhibition ([7]; 0.025 %): 3
- Degree of propagation ([8]; 7th day): -
- Degree of propagation ([8]; 14th day): -
- Degree of propagation ([8]; 21st day): + (the area of propagation is 1 - 25% on the slime test boards.)
- Degree of propagation (fungi [9]; 7th day): -
- Degree of propagation (fungi [9]; 14th day): -
- Degree of propagation (fungi [9]; 21st day): -
- Degree of propagation (green algae [10]; 7th day): -
- Degree of propagation (green algae [10]; 14th day): -
- Degree of propagation (green algae [10]; 21st day): + (the area of propagation is 1 - 25% on the slime test boards.)

SMILES: O=C(NC=C(Cl)Cl)c1cc(Cl)ccc1O [Compound No. 21, sodium salt of N-(2'-2'-dichlorovinyl)-5-chlorosalicylamide]
- Effect Index [11]: 80
- Phytotoxicity [12]: Nil
- Phytotoxicity (summer orange seedlings): Nil
- Minimum inhibitory amount (Aspergillus niger [13]): 10 µg/mL
- Minimum inhibitory amount (Bacillus subtilis [14]): 2.5 µg/mL
- Minimum inhibitory amount (Cladosporium harbarum [15]): 5 µg/mL
- Minimum inhibitory amount (Escherichia coli [16]): 40 µg/mL
- Minimum inhibitory amount (Penicillium Citrinum [17]): 5 µg/mL
- Minimum inhibitory amount (Staphylococcus aureus [18]): 2.5 µg/mL
- Degree of propagation [19]: -
- Degree of propagation (fungi [20]): -
- Degree of propagation (green algae [21]): -
- inhibition of bacteria, fungi and slime [22]: inhibited for a long time

SMILES: CCCCNC(=O)n1c(NC(=O)OC)nc2ccccc21 [Benlate, methyl-1-(butylcarbamoyl) 2-benzimidazol carbamate, reference compound]
- pest or weed control at 500 ppm [23]: 45%
- Phytotoxicity [24]: Nil
